Source: patent US6001383A (priority 1994, dated 1999)
Read-outs that look alike come from different tables or passages of the source.

What was measured:
[1] = cited from earlier work
[2] = cited from earlier work; for carcinogenicity: Sax and Lewis, 1989; for TLV value: worker safety limit
[3] = tested on: Rhyzopertha dominica (F.), strain Rd2; settings: R. dominica adults, cited from earlier work
[4] = tested on: Cryptotermes cyanocephalos; assay: Toxicity to dry wood termites, C. cyanocephalos; assay type: in vivo; settings: 24 h, 30° C., survival after one week
Procedure: (§1) Termites were obtained from cultures kept at 30° C. and 80% RH. Termites were transferred to 120 mL bottles fitted with Mininert valved lids and a 325 mg chip of plywood and sealed whilst at 80% RH and 30° C. All fumigations were performed in duplicate with a sample size of 10-11 insects for C. brevis, 25 insects for C. cyanocephalos and 22 insects for C. domesticus. An appropriate volume of air was removed from the sample bottles prior to the addition of fumigants. Dosed samples were analysed on a gas chromatograph to ensure concentrations were as predicted. A second set of gas chromatograph readings was taken prior to airing to ensure fumigant concentrations had remained static throughout the exposure period. […]
(§2) C2 N2 concentrations were measured on a Varian 3300 Gas Chromatograph equipped with a Thermionic Specific Detactor after separation on a DBwax column of internal diameter 0.53 mm. Phosphine concentrations were measured on a Shimadzu 6AM equipped with a Flame Photometric Detector. Methyl bromide concentrations were measured on a Shimadzu 6AM equipped with a Flame Ionisation Detector after separation on a GasChromQ with 20% OV-IO1 column.
(§3) After 24 hours exposure, termites and wood chips were transferred to plastic Petri dishes each containing a large piece of plywood. Initial and one week survivals were recorded.

Cryptotermes domesticus = assay: Toxicity to dry wood termites, C. domesticus; assay type: in vivo; settings: 24 h, 30° C., survival after one week
Procedure: as §1, §2, §3

Carnation = assay: Phytotoxicity to cut flowers, Carnation; settings: methyl bromide 30 mg L^-1, 2 h; control 5
Procedure: (§4) Field Carnations and Leucadendrons were purchased from a local wholesale florist. […]
(§5) After 2 hours the drums were opened and allowed to air in a fume hood, the flowers were removed from the drums, the stems trimmed and the bunches placed in water and left in the fume hood to air for 2 hours then placed in a cool room.
(§6) Assessment of the phytoxicity of the fumigants was done after one week of cold storage.
(§7) The phytoxicity assessments were made by a panel of six people who were asked independently to give a value out of 10 (Where 10 is excellent and 1 is unsaleable) for each flower and each treatment. The figures given below are the averaged results.

Leucadendron = assay: Phytotoxicity to cut flowers, Leucadendron; settings: methyl bromide 30 mg L^-1, 2 h; control 7
Procedure: as §4, §5, §6, §7

Cryptotermes brevis = assay: Toxicity to dry wood termites, C. brevis; assay type: in vivo; settings: 24 h, 30° C., survival after one week
Procedure: as §1, §2, §3

[5] = Sorption and desorption on wheat, comparative; settings: 25 g wheat; C2 N2 10 mg/L, phosphine 2 mg/L, methyl bromide 32 mg/L
Procedure: Samples of wheat (25 g) were placed in 250 mL conical flasks of known volume. The flasks were stoppered with a gas tight stopper containing a rubber septum (injection port). Flasks were dosed with C2 N2 (10 mg/L), phosphine (2 mg/L) or methyl bromide (32 mg/L). After 24 h the headspace concentrations were determined by gas chromatography. Each flask was then opened and the wheat sample aired briefly by pouring the wheat from one container to another and then the remaining sorbed fumigant was estimated by grinding the wheat sample in a gas-tight Waring blender canister fitted was a sampling port and determining the released fumigant by head space analysis.

C1CO1 [ethylene oxide]
solubility in water [1]: poorly soluble in water
carcinogenicity [2]: suspect carcinogen
TLV value [2]: 0.1 ppm

C=O [formaldehyde]
carcinogenicity [2]: suspect carcinogen
TLV value [2]: 1 ppm

CBr [methyl bromide]
CT product for control of adults ([3]; Monro, 1967): 33.0 mghL^-1
applied concentration giving 100% mortality [4]: 3.47 mgL^-1
applied concentration giving 100% mortality (Cryptotermes domesticus): 4.35 mgL^-1
phytotoxicity score (10 excellent, 1 unsaleable) (Carnation): 3
phytotoxicity score (10 excellent, 1 unsaleable) (Leucadendron): 6
applied concentration giving 100% mortality (Cryptotermes brevis): 1.74 mgL^-1
initial fumigant remaining in headspace after 24 h [5]: 69%

P [phosphine]
applied concentration giving 100% mortality [4]: 0.43 mgL^-1
applied concentration giving 100% mortality (Cryptotermes domesticus): 0.22 mgL^-1
applied concentration giving 100% mortality (Cryptotermes brevis): 0.43 mgL^-1
initial fumigant remaining in headspace after 24 h [5]: 91%

ClCCCl [ethylene dichloride]
CT product for control of adults ([3]; Monro, 1967): 636.0 mghL^-1

O=C=S [carbonyl sulphide]
CT product for control of adults ([3]; Desmarchelier 1994): 68.7 mghL^-1

S=C=S [carbon disulphide]
CT product for control of adults ([3]; Monro, 1967): 294.0 mghL^-1
